Test results as given in US20020062499A1, “Methods for translational repression of gene expression in plants” (priority 2000, published 2002).

Assays:
[1] = system: aroA:CP4 EPSPS reporter gene expression; experiment: MS2 CP translational repression of CP4 EPSPS reporter, corn protoplast transient assay (ELISA); format: cell-based; details: corn protoplasts
Procedure: Corn protoplasts are prepared from etiolated leaves of antiseptically grown seedlings. Six to eight grams of leaf tissue is harvested and put in the enzyme mix (1% cellulase, 0.1% macerozyme, 0.6 M mannitol, 10 mM MES (pH =5.7), 1 mM CaCl2, 1 mM MgCl2, and 0. 1% BSA) in 100×25 mm petri plates. The leaf digestion is done for 135 minutes, swirling on a shaker at 50 rpm at 26° C. under light (10-25 mico-einsteins) in a growth chamber (Percival Scientific Inc., Boone, Iowa). Protoplasts are screened through a 190 μm sterile tissue mesh into a petri plate. The protoplasts are spun down in a table top centrifuge at 800 rpm (˜200 g) for 8 minutes. The supernatant is removed carefully by pipetting. The protoplasts are resuspended in 10 mL per tube of the 0.6 M mannitol rinse. They are spun down a second time using the same conditions and re-suspended in 10 mL of the electroporation buffer (0.6 M mannitol, 4 mM MES, 1.0 mM β-mercaptoethanol, 25 mM KCL, pH =5.7) and put on ice. The number of protoplasts is determined by making counts on a hemacytometer and a final density of 4.5×10^6 per mL is obtained with the proper volume of electroporation buffer. For electroporation, 0.75 mL of protoplasts is added to each cuvette followed by the addition of plasmid DNA in a volume of 50 μL or less. Samples are electroporated at 125 […] and 260 volts using a Bio-Rad Gene Pulser Electroporater (Bio-Rad CA) and incubated in Murishige-Skoog medium (MS) +0.6 M mannitol in the light at 26° C. for 18-22 hours before analysis. Protoplasts are harvested by spinning down at 800-1000 rpm in a table top centrifuge and lysed by resuspending in 500 μL extraction buffer (IX phosphate buffered saline [PBS] (Roche Boehringer Mannheim #1666789, Nutley, N.J.) 0.2% BSA, 0.5% Tween 20, pH 7.4) and vortexed for five seconds. Samples are spun at 3,000 rpm for 5 min in a table top centrifuge and the supernatant is saved to a fresh tube and put on ice ready for analysis.
The total amount of DNA in each sample is equalized by using as a carrier an appropriate amount of an empty vector plasmid DNA pMON999 (P-CaMV.35S/T-AGRTU.nos). With the aroA:CP4 EPSPS gene as the reporter, the GUS activity encoded by a separate plasmid is used as an internal control to normalize the expression. Similarly, the aroA:CP4 EPSPS gene expression is used for normalization when the Ec.uidA (GUS) gene is used as the reporter.
The aroA:CP4 EPSPS expression is quantitated by ELISA. A crude protoplast extract containing lmg total protein is added to goat anti-CP4 EPSPS IgG coated wells of a 96-well microtiter plate for immunoreaction. Antibodies specific to CP4 EPSPS are produced in goats by immunization of three goats with recombinant SDS-PAGE purified CP4 EPSPS from recombinant E. coli. […]

GUS expression = experiment: MS2 translation repression system in transgenic Arabidopsis (F1 segregants of crosses); format: in vivo; details: Arabidopsis plants containing the MS2 coat protein
Procedure: Arabidopsis plants are transformed by the Agrobacterium infiltration method as described (Bechtold et al., Methods Mol. Biol. 82:259-66 (1992)). DNA gel blots (Southern blot analysis), RNA gel blots (northern blot analysis) and protein immunoblots (western blot analysis) are carried out using standard protocols (Sambrook et al., Molecular Cloning: A laboratory manual, 2nd ed. Cold Spring Harbor Laboratory Press, Cold Spring Harbor, N.Y., (1989)).
V1 plants positive for GUS and MS2 coat protein are identified using a GUS assay (Jefferson et al., Plant Mol. Bio. Rep. 5:387-405 (1987)) and western blot analysis, respectively. Positive plants with a low copy number are identified by Southern analysis then cross pollinated. F1 plants from the cross are then subjected to PCR analysis to identify segregants that contained both transgenes as well as siblings that contained only the uidA gene. GUS expression levels are determined by MUG assays (Jefferson et al., Plant Mol. Bio. Rep. 5:387-405, (1987)) in both groups of plants for three separate crosses (25×1, 25×12, and 14×23).

[2] = system: CP4 EPSPS reporter gene expression; experiment: Yeast RPL32 translational repression of CP4 EPSPS reporter in corn protoplasts; format: cell-based; details: CP4 EPSPS reporter with RPL32 operator
Procedure: (§1) Corn protoplasts are prepared from etiolated leaves of antiseptically grown seedlings. Six to eight grams of leaf tissue is harvested and put in the enzyme mix (1% cellulase, 0.1% macerozyme, 0.6 M mannitol, 10 mM MES (pH =5.7), 1 mM CaCl2, 1 mM MgCl2, and 0. 1% BSA) in 100×25 mm petri plates. The leaf digestion is done for 135 minutes, swirling on a shaker at 50 rpm at 26° C. under light (10-25 mico-einsteins) in a growth chamber (Percival Scientific Inc., Boone, Iowa). Protoplasts are screened through a 190 μm sterile tissue mesh into a petri plate. The protoplasts are spun down in a table top centrifuge at 800 rpm (˜200 g) for 8 minutes. The supernatant is removed carefully by pipetting. The protoplasts are resuspended in 10 mL per tube of the 0.6 M mannitol rinse. […] The number of protoplasts is determined by making counts on a hemacytometer and a final density of 4.5×10^6 per mL is obtained with the proper volume of electroporation buffer. […] Samples are spun at 3,000 rpm for 5 min in a table top centrifuge and the supernatant is saved to a fresh tube and put on ice ready for analysis.
For CP4 EPSPS ELISA assay, a 96-well Nunc-Immuno MaxiSorb plate is coated with 100 μL of purified monoclonal anti-CP4 EPSPS IgG antibody (1 ng/μL) in coating buffer (15 mM Na2CO3, 35 mM NaHCO3, pH 9.6). […] The plate is read on a Spectra Max 340 (Molecular Devices, Sunnyvail, Calif. 94089) at 450 nm. […]

[3] = system: Ec.uidA reporter gene with the MS2 operator in the 5′UTR; experiment: MS2 CP translational repression of Ec.uidA (GUS) reporter, corn protoplast transient assay; format: cell-based; details: pMON42178/pMON42176 and pMON42180/pMON42177; corn protoplasts
Procedure: as §1, with “analysis. […]” for “analysis.”
A fluorometry assay for GUS activity is performed as described (Jefferson, Plant Mol. Bio. Rep. 5:387-405 (1987)). GUS activity is measured with the fluorometric substrate 4-methylumbelliferryl-β-glucuronide (4-MUG) on a Fmax fluorimeter (Molecular Devices Corp., Sunnyvale, Calif.). […]

[4] = 4:1 DNA molar ratio of the coat protein gene to the reporter
[5] = MS2 coat protein gene co-expressed

Molecule: MS2 coat protein: coat protein of the MS2 RNA bacteriophage, RNA-binding translational repressor
- expression of the aroA:CP4 EPSPS reporter gene, % of the control [1, 4]: 0.4%
- fold repression of aroA:CP4 EPSPS reporter [1, 4]: 270 fold
- expression of the aroA:CP4 EPSPS reporter gene, % of the control [1, 5]: 14%
- fold repression of aroA:CP4 EPSPS reporter [1, 5]: about 7 fold
- GUS activity, % of the control (GUS expression): 6.9%
- fold repression of GUS activity (GUS expression): 14 fold

Molecule: RPL32: yeast (Saccharomyces cerevisiae) ribosomal protein RPL32, an RNA-binding protein
- fold reduction of translation [2]: up to 2.3 fold
- translation, % of the control [2]: ≥ 43%

B1: MS2 CP:en: plant expression enhanced version of the MS2 CP gene (SEQ ID NO:3) (nucleic acid)
DNA: ATGGCCTCCAACTTCACCCAGTTCGTGCTCGTGGACAACGGCGGCACCGGCGACGTGACCGTCGCCCCAAGCAACTTCGCCAACGGGGTCGCCGAGTGGATCAGCTCCAACTCGCGCTCCCAGGCCTACAAGGTGACCTGCAGCGTGCGCCAGTCCTCCGCGCAGAACCGCAAGTACACCATCAAGGTCGAGGTGCCGAAGGTGGCCACCCAGACCGTCGGCGGCGTGGAGCTGCCAGTGGCCGCCTGGCGCTCGTACCTCAACATGGAGCTGACCATCCCAATCTTCGCCACGAACTCCGACTGCGAGCTGATCGTGAAGGCCATGCAAGGCCTCCTGAAGGACGGCAACCCGATCCCCTCCGCCATCGCCGCCAACTCCGGCATCTACTAA
modifications: synthetic plant MS2 CP gene
- increase in efficiency of translational repression compared to the respective native gene construct, expressed as decrease in GUS activity [3]: 74-80%
